Measurements reported in patent publication US20070066629A1.
Where two headings read alike, the source gives them in different places.

Tested on: Corticium solani (syn. Rhizoctonia sasakii)
Details: individual active compound, rice, evaluated after 11 days, untreated control 81% infection
Procedure: 1% by weight of the emulsifier Uniperol® EL (wetting agent having emulsifying and dispersing action based on ethoxylated alkylphenols) was added to this solution, and the solution was diluted with water to the desired concentration.
The next day, oat grains infected with Corticium solani were placed into the pots (in each case 5 grains per pot). The plants were then placed in a chamber at 26° C. and maximum atmospheric humidity.
Evaluation is carried out by determining the infected leaf areas in percent. These percentages were converted into efficacies.
The efficacy (E) is calculated as follows using Abbot's formula: E=(1−α/β)*100 α corresponds to the fungicidal infection of the treated plants in % and β corresponds to the fungicidal infection of the untreated (control) plants in %
An efficacy of 0 means that the infection level of the treated plants corresponds to that of the untreated control plants; an efficacy of 100 means that the treated plants were not infected.

`CC1CCN(c2c(-c3c(F)cccc3Cl)c(Cl)nc3ncnn23)CC1` [A] was tested, and the “Efficacy in % of the untreated control” value (1 ppm in the spray liquor) was 26%.
`CO/C=C(/C(=O)OC)c1ccccc1Oc1cc(Oc2ccccc2C#N)ncn1` [I (azoxystrobin), azoxystrobin] was tested, and the “Efficacy in % of the untreated control” value (1 ppm in the spray liquor) was 1% and the “Efficacy in % of the untreated control” value (4 ppm in the spray liquor) was 26%.
`CC1CCN(c2c(-c3c(F)cc(F)cc3F)c(Cl)nc3ncnn23)CC1` [II, 5-chloro-7-(4-methylpiperidin-1-yl)-6-(2,4,6-trifluorophenyl)-[1,2,4]triazolo[1,5-a]pyrimidine] was tested, and the “Efficacy in % of the untreated control” value (1 ppm in the spray liquor) was 26%.
